From article PMC12837263, “β,β-Dimethylacrylalkannin Restores Colistin Efficacy Against mcr- and TCS-Mediated Resistant Gram-Negative Bacteria via Membrane Disturbance” (Antibiotics, 2025)

Experiments:
Assay type in all cases: cell-based
A. baumannii ATCC 19606 = experiment: Checkerboard assay (MIC, FICI)
Protocol: (§1) The FICI of β,β-Dim–colistin combination was determined by a checkerboard assay. Briefly, two-fold serial dilutions of β,β-Dim and colistin were prepared in a 96-well plate. After incubation at 37 °C for 18 h with bacterial suspension (10^6 CFU/mL), OD600 values were measured. FICI = (MICβ,β-Dim in combination/MICβ,β-Dim) + (MICcolistin in combination/MICcolistin). The synergistic effect of β,β-Dim with other antibiotics was measured in the same way. Synergy was considered to be an FICI ≤ 0.5.

E. coli 13f4(mcr-1) = experiment: Checkerboard assay (MIC, FICI)
Protocol: as §1

E. coli ATCC 25922 = experiment: Checkerboard assay (MIC, FICI)
Protocol: as §1

[1] = system: E. coli BW25113-184-mcr-1; experiment: Checkerboard assay (MIC, FICI)
Protocol: as §1

E. coli BW25113-184 = experiment: Checkerboard assay (MIC, FICI)
Protocol: as §1

[2] = system: E. coli BW25113-pmrAD82N(pmrA); experiment: Checkerboard assay (MIC, FICI)
Protocol: as §1

[3] = system: E. coli BW25113-pmrBR93P(pmrB); experiment: Checkerboard assay (MIC, FICI)
Protocol: as §1

E. coli ZJ71(mcr-1) = experiment: Checkerboard assay (MIC, FICI)
Protocol: as §1

E. coli pHSG299-mcr-3 = experiment: Checkerboard assay (MIC, FICI)
Protocol: as §1

K. pneumoniae 109(mcr-8) = experiment: Checkerboard assay (MIC, FICI)
Protocol: as §1

K. pneumoniae 126(mcr-8) = experiment: Checkerboard assay (MIC, FICI)
Protocol: as §1

[4] = system: K. pneumoniae 197(mcr-1、blaNDM); experiment: Checkerboard assay (MIC, FICI)
Protocol: as §1

K. pneumoniae 20(mcr-1) = experiment: Checkerboard assay (MIC, FICI)
Protocol: as §1

[5] = system: K. pneumoniae 251(mgrB、phoP、pmrA、blaKPC); experiment: Checkerboard assay (MIC, FICI)
Protocol: as §1

[6] = system: K. pneumoniae 29(mcr-8、pmrB、blaNDM); experiment: Checkerboard assay (MIC, FICI)
Protocol: as §1

[7] = system: K. pneumoniae 492(mcr-1、blaNDM); experiment: Checkerboard assay (MIC, FICI)
Protocol: as §1

[8] = system: K. pneumoniae 57(mcr-9、blaNDM); experiment: Checkerboard assay (MIC, FICI)
Protocol: as §1

[9] = system: K. pneumoniae 650(mgrB、phoP、pmrA、blaKPC); experiment: Checkerboard assay (MIC, FICI)
Protocol: as §1

[10] = system: K. pneumoniae 667(phoP、pmrA、blaKPC); experiment: Checkerboard assay (MIC, FICI)
Protocol: as §1

K. pneumoniae ATCC 13883 = experiment: Checkerboard assay (MIC, FICI)
Protocol: as §1

P. aeruginosa 9(mcr-1) = experiment: Checkerboard assay (MIC, FICI)
Protocol: as §1

P. aeruginosa PAO1 = experiment: Checkerboard assay (MIC, FICI)
Protocol: as §1

[11] = system: S. Typhimurium 9891(mcr-1); experiment: Checkerboard assay (MIC, FICI)
Protocol: as §1

[12] = system: S. Typhimurium ATCC 14028; experiment: Checkerboard assay (MIC, FICI)
Protocol: as §1

[13] = system: K. pneumoniae, E. coli, Salmonella, P. aeruginosa, and A. baumannii; experiment: Checkerboard assay, panel of tested strains (summary statements)
Protocol: as §1

K. pneumoniae 667 = experiment: Bacterial growth curves; details: β,β-Dim 4 µg/mL, colistin 0.5 µg/mL, alone or combined; 24 h
Protocol: Overnight cultures of K. pneumoniae 667 and E. coli 13f4 were diluted to 10^6 CFU/mL; then, β,β-Dim (4 μg/mL), colistin (0.5 or 2 μg/mL), and their combination were co-incubated with bacterial suspensions in a 96-well plate. OD600 values were monitored hourly over a 24 h period.

[14] = Escherichia coli, read-out: MIC of β,β-Dim
[15] = Escherichia coli, BW25113, read-out: MIC of β,β-Dim
[16] = Klebsiella pneumoniae, read-out: MIC of β,β-Dim

CC(C)=CC[C@H](OC(=O)C=C(C)C)C1=CC(=O)c2c(O)ccc(O)c2C1=O [β,β-Dim, β,β-dimethylacrylalkannin]
MIC of β,β-Dim [Combination] (A. baumannii ATCC 19606; 19606, with colistin): 4 µg/mL
MIC (A. baumannii ATCC 19606; Acinetobacter baumannii, ATCC19606, read-out: MIC of β,β-Dim): > 128 µg/mL
MIC of β,β-Dim [Combination] (E. coli 13f4(mcr-1); 13f4, with colistin): 4 µg/mL
MIC (E. coli 13f4(mcr-1); [14]): > 128 µg/mL
MIC of β,β-Dim [Combination] (E. coli ATCC 25922; 25922, with colistin): 2 µg/mL
MIC (E. coli ATCC 25922; Escherichia coli, ATCC25922, read-out: MIC of β,β-Dim): > 128 µg/mL
MIC of β,β-Dim [Combination] ([1]; BW25113-184-mcr-1, with colistin): 4 µg/mL
MIC [1, 15]: > 128 µg/mL
MIC of β,β-Dim [Combination] (E. coli BW25113-184; BW25113-184, with colistin): 2 µg/mL
MIC (E. coli BW25113-184; [15]): > 128 µg/mL
MIC of β,β-Dim [Combination] ([2]; BW25113-pmrAD82N, with colistin): 8 µg/mL
MIC [2, 15]: > 128 µg/mL
MIC of β,β-Dim [Combination] ([3]; BW25113-pmrBR93P, with colistin): 8 µg/mL
MIC [3, 15]: > 128 µg/mL
MIC (E. coli ZJ71(mcr-1); [14]): > 128 µg/mL
MIC of β,β-Dim [Combination] (E. coli ZJ71(mcr-1); ZJ71, with colistin): 4 µg/mL
MIC (E. coli pHSG299-mcr-3; Escherichia coli, PHSG299MCR3, read-out: MIC of β,β-Dim): > 128 µg/mL
MIC of β,β-Dim [Combination] (E. coli pHSG299-mcr-3; pHSG299-mcr-3, with colistin): 8 µg/mL
MIC of β,β-Dim [Combination] (K. pneumoniae 109(mcr-8); 109, with colistin): 4 µg/mL
MIC (K. pneumoniae 109(mcr-8); [16]): > 128 µg/mL
MIC of β,β-Dim [Combination] (K. pneumoniae 126(mcr-8); 126, with colistin): 8 µg/mL
MIC (K. pneumoniae 126(mcr-8); [16]): > 128 µg/mL
MIC of β,β-Dim [Combination] ([4]; 197, with colistin): 8 µg/mL
MIC [4, 16]: > 128 µg/mL
MIC of β,β-Dim [Combination] (K. pneumoniae 20(mcr-1); 20(mcr-1), with colistin): 4 µg/mL
MIC (K. pneumoniae 20(mcr-1); [16]): > 128 µg/mL
MIC of β,β-Dim [Combination] ([5]; 251, with colistin): 4 µg/mL
MIC [5, 16]: > 128 µg/mL
MIC of β,β-Dim [Combination] ([6]; 29, with colistin): 4 µg/mL
MIC [6, 16]: > 128 µg/mL
MIC of β,β-Dim [Combination] ([7]; 492, with colistin): 2 µg/mL
MIC [7, 16]: > 128 µg/mL
MIC of β,β-Dim [Combination] ([8]; 57, with colistin): 8 µg/mL
MIC [8, 16]: > 128 µg/mL
MIC of β,β-Dim [Combination] ([9]; 650, with colistin): 8 µg/mL
MIC [9, 16]: > 128 µg/mL
MIC of β,β-Dim [Combination] ([10]; 667, with colistin): 2 µg/mL
MIC [10, 16]: > 128 µg/mL
MIC of β,β-Dim [Combination] (K. pneumoniae ATCC 13883; 13883, with colistin): 2 µg/mL
MIC (K. pneumoniae ATCC 13883; Klebsiella pneumoniae, ATCC13883, read-out: MIC of β,β-Dim): > 128 µg/mL
MIC of β,β-Dim [Combination] (P. aeruginosa 9(mcr-1); P. aeruginosa 9, with colistin): 16 µg/mL
MIC (P. aeruginosa 9(mcr-1); Pseudomonas aeruginosa, read-out: MIC of β,β-Dim): > 128 µg/mL
MIC of β,β-Dim [Combination] (P. aeruginosa PAO1; PAO1, with colistin): 2 µg/mL
MIC (P. aeruginosa PAO1; Pseudomonas aeruginosa, PAO1, read-out: MIC of β,β-Dim): > 128 µg/mL
MIC of β,β-Dim [Combination] ([11]; 9891, with colistin): 8 µg/mL
MIC ([11]; Salmonella enterica, TYPHIMURIUM, read-out: MIC of β,β-Dim): > 128 µg/mL
MIC of β,β-Dim [Combination] ([12]; 14028, with colistin): 0.5 µg/mL
MIC ([12]; Salmonella enterica, read-out: MIC of β,β-Dim): > 128 µg/mL
antibacterial activity against Gram-negative bacteria ([13]; β,β-Dim alone): did not exhibit antibacterial activity
FICI ([13]; β,β-Dim with colistin, summary over tested strains): < 0.5
bacterial growth (growth curves) (K. pneumoniae 667): neither β,β-Dim (4 µg/mL) nor colistin (0.5 µg/mL) alone inhibited the growth
